Data from article PMC9067978, “Design, synthesis, and molecular docking studies of novel pomalidomide-based PROTACs as potential anti-cancer agents targeting EGFR^WT and EGFR^T790M” (Journal of Enzyme Inhibition and Medicinal Chemistry, 2022).
“Also recorded” adds a separate entry of the source.

Assays:
Akt phosphorylation = experiment: Western blotting, Akt phosphorylation in A549 cells; format: cell-based, human; conditions: A549 cells, 0.1, 0.3 and 1 µM, erlotinib for comparison
Experimental: (§1) At a concentration of 100 nM, the time-dependent degradation activities of compounds 15–21 were also examined (Figure 5(A)).
Figure 5. (A) EGFR time-dependent degradation by compound 16 in A549 cell lines. Cells were treated with100 nM of 15–21 for indicated time points. Western blotting was used to evaluate EGFR protein, and densitometry was used to measure EGFR degradation, which was adjusted to the density of β-actin protein (n ¼2). (B) Compounds 15 and 16 have EGFR degradation and phosphorylation inhibitory action in A549 cells. The cells were exposed to concentrations of 0.1, 0.3, and 1 µM. Erlotinib were utilised for comparison. […]
Cells were seeded in 6-well plates at 1 × 10^6 per well, incubated at 37 °C with 5% CO2 for 24 h before drug exposure. […] The results were detected by an enhanced chemiluminescence system (Mill-pore). […]

EGFR = molecular target: T1, EGFR (Homo sapiens, UniProt P00533); experiment: Western blotting, EGFR degradation in A549 cells; format: cell-based
T1 construct: EGFR degradation activities of compounds in A549 cells; endogenous in cells; host or cells: A549
T1 sequence (P00533 25-1210): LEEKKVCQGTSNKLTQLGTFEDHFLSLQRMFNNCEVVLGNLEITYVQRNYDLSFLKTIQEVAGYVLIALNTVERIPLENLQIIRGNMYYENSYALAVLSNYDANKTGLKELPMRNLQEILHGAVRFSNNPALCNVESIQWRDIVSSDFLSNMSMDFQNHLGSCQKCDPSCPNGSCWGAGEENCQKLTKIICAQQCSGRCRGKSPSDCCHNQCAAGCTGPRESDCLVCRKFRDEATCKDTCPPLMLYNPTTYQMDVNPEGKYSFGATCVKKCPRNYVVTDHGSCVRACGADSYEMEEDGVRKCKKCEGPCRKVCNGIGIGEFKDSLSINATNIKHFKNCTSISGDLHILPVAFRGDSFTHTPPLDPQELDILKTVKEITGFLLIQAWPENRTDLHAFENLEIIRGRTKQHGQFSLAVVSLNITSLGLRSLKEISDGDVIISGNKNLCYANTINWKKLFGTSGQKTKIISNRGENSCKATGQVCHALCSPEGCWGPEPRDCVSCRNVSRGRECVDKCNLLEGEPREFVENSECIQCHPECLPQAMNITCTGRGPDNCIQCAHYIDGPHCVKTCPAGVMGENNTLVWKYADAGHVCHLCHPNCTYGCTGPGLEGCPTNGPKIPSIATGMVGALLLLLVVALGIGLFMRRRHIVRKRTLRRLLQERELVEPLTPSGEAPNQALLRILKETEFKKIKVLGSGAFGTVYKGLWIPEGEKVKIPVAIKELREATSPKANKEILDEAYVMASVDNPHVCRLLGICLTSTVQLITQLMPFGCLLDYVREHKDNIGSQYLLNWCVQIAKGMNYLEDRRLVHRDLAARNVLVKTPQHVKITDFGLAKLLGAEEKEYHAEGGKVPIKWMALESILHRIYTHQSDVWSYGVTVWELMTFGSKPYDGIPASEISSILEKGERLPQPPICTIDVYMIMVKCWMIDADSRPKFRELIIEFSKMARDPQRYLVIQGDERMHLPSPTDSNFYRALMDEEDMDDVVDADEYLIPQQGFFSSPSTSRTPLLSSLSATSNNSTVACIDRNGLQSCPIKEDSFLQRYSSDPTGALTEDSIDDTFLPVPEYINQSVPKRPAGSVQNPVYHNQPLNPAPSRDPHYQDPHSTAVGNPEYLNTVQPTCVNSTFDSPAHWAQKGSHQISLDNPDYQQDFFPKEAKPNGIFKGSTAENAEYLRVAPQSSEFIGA
Experimental: Following this, the target compounds 15–21 tethering various E3 ligases ligand were chosen as representative PROTACs for further degradation study based on temporal data.
Figure 4. (A) EGFR degradation activities of compounds in A549 cells. Cells were treated for 48 h with concentration of 0.1 and 1 µM. (B) Effects of concentration-dependent EGFR degradation by compounds 15–21 in A549 cell lines. Cells were treated for 48 h with a concentration from 1 nM to 10 µM. EGFR protein was examined by Western blotting analysis and EGFR degradation rate was quantified by densitometry and normalised to the corresponding density of β-actin protein (n ¼ 3). TEXT PRINTED IN THE PICTURE: (B) Comp 15: DC50 = 43.4 nm | (B) Comp 16: DC50= 32.9 nm DOUBTS OF THE COPYIST ABOUT THIS PICTURE: Comp 15, DC50: 43.4 is small blurred print; the 3 could be 8 and the digits are not certain / Comp 16, DC50: 32.9 is small blurred print; the 3 could be 8 and the 9 could be 8 or 0
We set nine concentration gradients ranging from […] to 10 µM to determine the degradation activity of all tested compounds and calculated the DC50 (concentration that caused deletion of 50% of EGFR) values.
as §1
Figure 5. (A) EGFR time-dependent degradation by compound 16 in A549 cell lines. Cells were treated with100 nM of 15–21 for indicated time points. Western blotting was used to evaluate EGFR protein, and densitometry was used to measure EGFR degradation, which was adjusted to the density of β-actin protein (n ¼2). (B) Compounds 15 and 16 have EGFR degradation and phosphorylation inhibitory action in A549 cells. The cells were exposed to concentrations of 0.1, 0.3, and 1 µM. Erlotinib were utilised for comparison. TEXT PRINTED IN THE PICTURE: (A) Comp 15: Dmax = 85 % @ 96 h; Degradation: 9 (4 h; 100 nM); Degradation: 22 (8 h; 100 nM); Degradation: 42 (12 h; 100 nM); Degradation: 83 (24 h; 100 nM); Degradation: 84 (36 h; 100 nM); Degradation: 82 (48 h; 100 nM); Degradation: 82 (72 h; 100 nM); Degradation: 85 (96 h; 100 nM) | (A) Comp 16: Dmax = 96 % @72 h; Degradation: 32 (4 h; 100 nM); Degradation: 43 (8 h; 100 nM); Degradation: 67 (12 h; 100 nM); Degradation: 69 (24 h; 100 nM); Degradation: 78 (36 h; 100 nM); Degradation: 85 (48 h; 100 nM); Degradation: 96 (72 h; 100 nM); Degradation: 94 (96 h; 100 nM) DOUBTS OF THE COPYIST ABOUT THIS PICTURE: Comp 15, Dmax: print is blurred, 85 % @ 96 h is the best reading (85 or 86) / Comp 16, Dmax: print is small and blurred, 96 % @72 h is the best reading (96 or 95; the % sign is unclear) / Comp 15, Degradation row: print is blurred, 83/84/82/82/85 are best readings (3, 5, 8 are hard to tell apart) / Comp 16, Degradation row: print is blurred, 67/69/78/85/96/94 are best readings (5, 6, 8, 9 are hard to tell apart) / The Degradation rows are printed under the blot lanes with no unit. The value 0 under the 0.1 % DMSO control lane was not assigned to any compound.
Cells were seeded in 6-well plates at 1 × 10^6 per well, incubated at 37 °C with 5% CO2 for 24 h before drug exposure. Cells were treated with different concentrations of synthesised compounds for […], then collected and suspended in lysis buffer (Beyotime) and centrifuged for 20 min at 12000 rpm, later removed the insoluble material. […] The results were detected by an enhanced chemiluminescence system (Mill-pore). […]

HepG-2 = experiment: DNA-flow cytometric cell cycle analysis, HepG-2; format: cell-based, human; conditions: 3.02 µM, 24 hours
Experimental: (§2) Then, the influence of compound 16 on the cell cycle profile was then investigated.
(§3) The cells that had been tested were then trypsinized and washed in sterilised phosphate buffer saline (PBS). The collected cells were fixed with cold ethanol (100%, 1.5 ml). According to the manufacturer’s instructions, a Cycle TESTTM PLUS DNA Reagent Kit was used to dye the cells (BD Biosciences, San Jose, CA). A flow cytometer was used to assess cell-cycle distribution.[52]

MCF-7 [1] = experiment: DNA-flow cytometric cell cycle analysis, MCF-7; format: cell-based, human; conditions: 3.92 µM, 24 hours
Experimental: as §2, §3

caspase-3 = experiment: Caspase-3 determination (ELISA) in HepG-2 cells; format: cell-based, human; conditions: HepG-2, 3.02 µM, 24 hours
Experimental: Caspase-3 activation was measured using a Caspase-3 ELISA Kit (KHO1091).

MCF-7 [2] = experiment: Annexin V/propidium iodide apoptosis assay, MCF-7; format: cell-based, human; conditions: 3.92 µM, 24 hours
Experimental: The double staining Annexin V/propidium iodide technique was performed to assess the mechanism of cell death and apoptosis-inducing activity.[46] […] As shown in (Figure 7 (A and B).
The negative control was chosen to be DMSO. The cells were then collected and washed twice in PBS. The cells were separated using centrifugation. An apoptosis detection kit (BD Biosciences, SanJose, CA) was used in this investigation. Following the manufacturer’s instructions, the cells were dyed with Annexin V-FITC and propidium iodide (PI) in the binding buffer for 20 minutes at 37 °C in the darkness. A flow cytometer was used to assess the binding of Annexin V-FITC and PI. The frequencies in all quadrants were investigated using the Flowjo program.[53]

Question: For Cn1c(=O)c(C(=O)NNCCOCCOCC(=O)Nc2cccc3c2C(=O)N(C2CCC(=O)NC2=O)C3=O)nc2ccccc21 (stereo not drawn) [Compound 16, N-(2-(2,6-dioxopiperidin-3-yl)-1,3-dioxoisoindolin-4-yl)-2-(2-(2-(2-(4-methyl-3-oxo-3,4-dihydroquinoxaline-2-carbonyl) hydrazinyl)ethoxy)ethoxy) acetamide], which “inhibition of Akt phosphorylation, in words” value (Akt phosphorylation) is on record?
Answer: Its value is “effectively displayed inhibitory activity; also recorded: comparable to erlotinib”.

Question: And the Dmax at 0.1 µM (EGFR; A549, A549 cells, 100 nM, time course, reached at 96 h (15) and 72 h (16), read-out: Dmax, maximum EGFR degradation rate)?
Answer: Its Dmax at 0.1 µM is 96%.

Question: What about the DC50 (EGFR; A549 cells, 48 h, Western blotting densitometry, read-out: DC50 (concentration that caused deletion of 50% of EGFR)) of the same compound?
Answer: The DC50 was 0.0329 µM.

Question: What about the “concentration-dependent EGFR degradation, in words” value (EGFR; A549 cells, 48 h, concentration series up to 10 µM) of the same compound?
Answer: The value was “hook effect”.

Question: What about the “fold increase of cells in G2-M phase vs control, HepG-2” value (HepG-2) of the same compound?
Answer: Its value is 1.61 fold.

Question: And the “fold increase of cells in pre-G1 phase vs control, HepG-2” value (HepG-2)?
Answer: The value was 6.76 fold.

Question: What about the “fold increase of cells in G2-M phase vs control, MCF-7” value (MCF-7 [1]) of the same compound?
Answer: Its value is 1.53 fold.

Question: What about the “fold increase of cells in pre-G1 phase vs control, MCF-7” value (MCF-7 [1]) of the same compound?
Answer: The value was 4.39 fold.

Question: And the “increase of caspase-3 level vs control cells” value (caspase-3)?
Answer: The value was 6.31 fold.

Question: And the “cellular apoptosis, early and late, times vs control, MCF-7” value (MCF-7 [2])?
Answer: Its value is about 9 times.

Question: What about the “early apoptosis ratio, MCF-7” value (MCF-7 [2]) of the same compound?
Answer: Its value is 4.18%.

Question: What about the “late apoptosis ratio, MCF-7” value (MCF-7 [2]) of the same compound?
Answer: Its value is 5.07%.
